Measurements reported in ChEMBL document CHEMBL4396937, “Synthesis of new triazole fused imidazo[2,1-b]thiazole hybrids with emphasis on Staphylococcus aureus virulence factors” (Bioorg Med Chem Lett, 2019).
Converted amounts (≈) assume the structure as drawn.

Legend:
Type in all cases: functional
[1] = tested on: Candida albicans; assay: Antifungal activity against Candida albicans MTCC 3017 assessed as reduction in fungal growth incubated for 24 hrs by agar well diffusion method; conditions: MTCC 3017, 24 h
[2] = tested on: Micrococcus luteus; assay: Antibacterial activity against Micrococcus luteus MTCC 2470 assessed as reduction in bacterial growth incubated for 24 hrs by agar well diffusion method; conditions: MTCC 2470, 24 h
[3] = tested on: Escherichia coli; assay: Bactericidal activity against Escherichia coli MTCC 739 assessed as reduction in bacterial survival incubated for 24 hrs followed by transfer of microbial suspension to agar plates and measured at 24 hrs post transfer by agar well diffusion method; conditions: MTCC 739, 24 h
[4] = tested on: Bacillus subtilis; assay: Bactericidal activity against Bacillus subtilis MTCC 121 assessed as reduction in bacterial survival incubated for 24 hrs followed by transfer of microbial suspension to agar plates and measured at 24 hrs post transfer by agar well diffusion method; conditions: MTCC 121, 24 h
[5] = tested on: Staphylococcus aureus; assay: Bactericidal activity against Staphylococcus aureus MLS-16 MTCC 2940 assessed as reduction in bacterial survival incubated for 24 hrs followed by transfer of microbial suspension to agar plates and measured at 24 hrs post transfer by agar well diffusion method; conditions: MLS-16 MTCC 2940, 24 h
[6] = tested on: Raoultella planticola; assay: Antibacterial activity against Klebsiella planticola MTCC 530 assessed as reduction in bacterial growth incubated for 24 hrs by agar well diffusion method; conditions: MTCC 530, 24 h
[7] = tested on: Pseudomonas aeruginosa; assay: Bactericidal activity against Pseudomonas aeruginosa MTCC 2453 assessed as reduction in bacterial survival incubated for 24 hrs followed by transfer of microbial suspension to agar plates and measured at 24 hrs post transfer by agar well diffusion method; conditions: MTCC 2453, 24 h
[8] = tested on: Raoultella planticola; assay: Bactericidal activity against Klebsiella planticola MTCC 530 assessed as reduction in bacterial survival incubated for 24 hrs followed by transfer of microbial suspension to agar plates and measured at 24 hrs post transfer by agar well diffusion method; conditions: MTCC 530, 24 h
[9] = tested on: Staphylococcus aureus; assay: Antibacterial activity against Staphylococcus aureus MLS-16 MTCC 2940 assessed as reduction in bacterial growth incubated for 24 hrs by agar well diffusion method; conditions: MLS-16 MTCC 2940, 24 h
[10] = tested on: Pseudomonas aeruginosa; assay: Antibacterial activity against Pseudomonas aeruginosa MTCC 2453 assessed as reduction in bacterial growth incubated for 24 hrs by agar well diffusion method; conditions: MTCC 2453, 24 h
[11] = tested on: Candida albicans; assay: Fungicidal activity against Candida albicans MTCC 3017 assessed as reduction in fungal survival incubated for 24 hrs followed by transfer of microbial suspension to agar plates and measured at 24 hrs post transfer by agar well diffusion method; conditions: MTCC 3017, 24 h
[12] = tested on: Escherichia coli; assay: Antibacterial activity against Escherichia coli MTCC 739 assessed as reduction in bacterial growth incubated for 24 hrs by agar well diffusion method; conditions: MTCC 739, 24 h
[13] = tested on: Bacillus subtilis; assay: Antibacterial activity against Bacillus subtilis MTCC 121 assessed as reduction in bacterial growth incubated for 24 hrs by agar well diffusion method; conditions: MTCC 121, 24 h
[14] = tested on: Staphylococcus aureus; assay: Bactericidal activity against Staphylococcus aureus MTCC 96 assessed as reduction in bacterial survival incubated for 24 hrs followed by transfer of microbial suspension to agar plates and measured at 24 hrs post transfer by agar well diffusion method; conditions: MTCC 96, 24 h
[15] = tested on: Micrococcus luteus; assay: Bactericidal activity against Micrococcus luteus MTCC 2470 assessed as reduction in bacterial survival incubated for 24 hrs followed by transfer of microbial suspension to agar plates and measured at 24 hrs post transfer by agar well diffusion method; conditions: MTCC 2470, 24 h
[16] = tested on: Staphylococcus aureus; assay: Antibacterial activity against Staphylococcus aureus MTCC 96 assessed as reduction in bacterial growth incubated for 24 hrs by agar well diffusion method; conditions: MTCC 96, 24 h

| Structure (SMILES) | MIC [1] [µg/mL] | MIC [2] [µg/mL] | MIC [9] [µg/mL] | MIC [10] [µg/mL] | MIC [12] [µg/mL] | MIC [13] [µg/mL] | MIC [16] [µg/mL] | MBC [3] [µg/mL] | MBC [4] [µg/mL] | MBC [5] [µg/mL] | MIC [6] [µg/mL] | MBC [7] [µg/mL] | MBC [8] [µg/mL] | MFC [11] [µg/mL] | MBC [14] [µg/mL] | MBC [15] [µg/mL] |
| --- | --- | --- | --- | --- | --- | --- | --- | --- | --- | --- | --- | --- | --- | --- | --- | --- |
| COc1ccc(-c2nc3sccn3c2C(=O)c2cn(-c3ccc(OC)cc3)nn2)cc1 | 15.6 (≈ 36.2 µM) | 15.6 (≈ 36.2 µM) | 7.8 (≈ 18.1 µM) | > 125 | > 125 | 7.8 (≈ 18.1 µM) | 15.6 (≈ 36.2 µM) | > 125 | 15.6 (≈ 36.2 µM) | 15.6 (≈ 36.2 µM) | 7.8 (≈ 18.1 µM) | > 125 | 15.6 (≈ 36.2 µM) | 31.2 (≈ 72.3 µM) | 31.2 (≈ 72.3 µM) | 31.2 (≈ 72.3 µM) |
| COc1ccc(-n2cc(C(=O)c3c(-c4ccccc4)nc4sccn34)nn2)cc1 | 15.6 (≈ 38.9 µM) | 3.9 (≈ 9.71 µM) | 7.8 (≈ 19.4 µM) | > 125 | > 125 | 3.9 (≈ 9.71 µM) | 7.8 (≈ 19.4 µM) | > 125 | 7.8 (≈ 19.4 µM) | 15.6 (≈ 38.9 µM) | 15.6 (≈ 38.9 µM) | > 125 | 31.2 (≈ 77.7 µM) | 31.2 (≈ 77.7 µM) | 15.6 (≈ 38.9 µM) | 7.8 (≈ 19.4 µM) |
| COc1cc(-n2cc(C(=O)c3c(-c4ccc(Cl)cc4)nc4sccn34)nn2)cc(OC)c1OC | 15.6 (≈ 31.5 µM) | 15.6 (≈ 31.5 µM) | 7.8 (≈ 15.7 µM) | > 125 | > 125 | 3.9 (≈ 7.86 µM) | 7.8 (≈ 15.7 µM) | > 125 | 7.8 (≈ 15.7 µM) | 15.6 (≈ 31.5 µM) | > 125 | > 125 | > 125 | 31.2 (≈ 62.9 µM) | 15.6 (≈ 31.5 µM) | 31.2 (≈ 62.9 µM) |

Now from value to compound, other results behind:

| MIC [1] [µg/mL] | MIC [2] [µg/mL] | MIC [9] [µg/mL] | MIC [10] [µg/mL] | MIC [12] [µg/mL] | MIC [13] [µg/mL] | MIC [16] [µg/mL] | Structure (SMILES) | MBC [3] [µg/mL] | MBC [4] [µg/mL] | MBC [5] [µg/mL] | MIC [6] [µg/mL] | MBC [7] [µg/mL] | MBC [8] [µg/mL] | MFC [11] [µg/mL] | MBC [14] [µg/mL] | MBC [15] [µg/mL] |
| --- | --- | --- | --- | --- | --- | --- | --- | --- | --- | --- | --- | --- | --- | --- | --- | --- |
| 15.6 (≈ 37.2 µM) | 3.9 (≈ 9.3 µM) | 7.8 (≈ 18.6 µM) | > 125 | > 125 | 3.9 (≈ 9.3 µM) | 3.9 (≈ 9.3 µM) | COc1ccc(-c2nc3sccn3c2C(=O)c2cn(-c3ccc(F)cc3)nn2)cc1 | > 125 | 7.8 (≈ 18.6 µM) | 15.6 (≈ 37.2 µM) | > 125 | > 125 | > 125 | 31.2 (≈ 74.4 µM) | 7.8 (≈ 18.6 µM) | 7.8 (≈ 18.6 µM) |
| 7.8 (≈ 15.5 µM) | 3.9 (≈ 7.76 µM) | 7.8 (≈ 15.5 µM) | > 125 | > 125 | 3.9 (≈ 7.76 µM) | 3.9 (≈ 7.76 µM) | O=C(c1cn(-c2ccc(F)cc2Br)nn1)c1c(-c2ccc(Cl)cc2)nc2sccn12 | > 125 | 7.8 (≈ 15.5 µM) | 15.6 (≈ 31 µM) | 3.9 (≈ 7.76 µM) | > 125 | 7.8 (≈ 15.5 µM) | 15.6 (≈ 31 µM) | 7.8 (≈ 15.5 µM) | 7.8 (≈ 15.5 µM) |
